Patent US20260365628A1, “SUBSTITUTED 3,4-DIHYDROQUINOLINONE INHIBITORS OF TSHR” (Septerna, Inc., priority 2022, published 2026)

molecular target: T1, hTSHR (Homo sapiens, UniProt P16473); assay: hTSHR TR-FRET cAMP Assay (inhibition of M22-stimulated cAMP production); format: cell-based; details: Expi293F Inducible cells stably expressing hTSHR; cAMP HTRF; stimulated with EC80 of anti-TSHR antibody M22; 15 min compound preincubation, 30 min at 37° C.; read-out: Activity (IC50 bins)
T1 construct: expressed in transfected cells
Experimental: Assays were performed using Expi293F Inducible cells (Invitrogen) stably expressing hTSHR via a pcZeo TetO DNA plasmid. Cell lines were maintained in suspension in Expi293 Expression Medium (ThermoFisher Scientific) supplemented with 10 µg/mL Blasticidin and 10 μg/mL Zeocin and incubated at 37° C., 8% CO2, with shaking. hTSHR cells were incubated overnight at 32° C., 5% C02, with shaking, but […] Doxycycline. Assay-ready aliquots were prepared by harvesting each cell type separately 24-hours post-induction. Cells were pelleted at 4° C., resuspended in Expi293 Expression media+10% DMSO, aliquoted, and kept frozen at −80° C. until ready for use.
For the assay, concentration-response curves of test and reference compounds were added to 384-well plates using an Echo 650 liquid handler (Beckman Coulter) and backfilled with DMSO to a final concentration of 0.5%. cAMP was measured using the cisbio cAMP Gs dynamic HTRF kit (PerkinElmer) according to manufacturer instructions. Aliquots of frozen hTSHR cells were quickly thawed and washed with phosphate-buffered saline (Sigma-Aldrich) to remove media and DMSO. The cells were resuspended in kit-supplied Stimulation Buffer at 0.8×10^6 cells/mL. 7.5 μL of the hTSHR cell dilution were added to each well of the assay plate and incubated with the compounds for 15 minutes in a 37 C, 0% CO2 incubator. 2.5 μL of Vehicle control or an EC80 concentration of recombinant human anti-TSHR antibody (M22, Creative Biolabs) was added to stimulate cAMP production. Cells were incubated with for 30 minutes at 37° C., 0% CO2. Following this incubation, the cells were lysed and accumulated cAMP was detected through the addition of kit-supplied lysis buffer containing d2-reagent and Eu-cryptate antibody. The HTRF signal was quantified using a BMG Clariostar plate reader optimized for HTRF assays. The HTRF ratio was determined by dividing the signal output at […] by that at 620 nm. Data were normalized to the signal produced by the EC80 concentration of either M22 or FSH (0% inhibition) and vehicle (no agonist, 100% inhibition).

T1 sequence (P16473 21-764): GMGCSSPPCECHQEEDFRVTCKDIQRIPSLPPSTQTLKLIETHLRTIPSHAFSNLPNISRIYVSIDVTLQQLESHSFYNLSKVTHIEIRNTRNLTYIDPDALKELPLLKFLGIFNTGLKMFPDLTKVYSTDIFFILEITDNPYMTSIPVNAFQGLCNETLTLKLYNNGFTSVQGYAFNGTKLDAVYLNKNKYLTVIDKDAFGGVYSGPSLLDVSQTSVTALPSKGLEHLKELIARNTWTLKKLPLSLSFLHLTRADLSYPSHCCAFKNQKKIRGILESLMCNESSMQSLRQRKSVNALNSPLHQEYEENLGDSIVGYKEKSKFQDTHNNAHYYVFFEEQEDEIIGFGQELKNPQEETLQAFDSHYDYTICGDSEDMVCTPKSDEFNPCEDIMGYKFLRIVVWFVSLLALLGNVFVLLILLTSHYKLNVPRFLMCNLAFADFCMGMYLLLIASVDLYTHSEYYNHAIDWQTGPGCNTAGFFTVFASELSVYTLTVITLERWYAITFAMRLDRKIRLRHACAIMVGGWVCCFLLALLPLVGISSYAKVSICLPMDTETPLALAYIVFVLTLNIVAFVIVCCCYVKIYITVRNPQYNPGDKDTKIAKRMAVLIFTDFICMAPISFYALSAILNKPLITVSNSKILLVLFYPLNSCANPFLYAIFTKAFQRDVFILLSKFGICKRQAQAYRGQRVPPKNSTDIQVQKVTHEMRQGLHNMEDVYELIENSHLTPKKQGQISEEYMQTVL

Row | Compound | IC50 [nM]
1 | C[C@H]1Oc2cc(NC(=O)NC3(C(F)(F)F)CCCC3)ccc2N(Cc2cccc(C(F)(F)F)n2)C1=O [Example 234, (R)-1-(2-methyl-3-oxo-4-((6-(trifluoromethyl)pyridin-2-yl)methyl)-3,4-dihydro-2H-benzo[b][1,4]oxazin-7-yl)-3-(1-(trifluoromethyl)cyclopentyl)urea] | < 100
2 | C[C@H]1Oc2cc(NC(=O)NC(C)(C)C)ccc2N(Cc2cc(C(F)(F)F)ccn2)C1=O [Example 162, (R)-1-(tert-butyl)-3-(2-methyl-3-oxo-4-((4-(trifluoro-methyl)pyridin-2-yl)methyl)-3,4-dihydro-2H-benzo [b][1,4]oxazin-7-yl)urea] | 100 to 1000
3 | CC1(NC(=O)Nc2ccc3c(c2)ncc(=O)n3Cc2ccccc2)CCC1 [Example 191, 1-(1-benzyl-2-oxo-1,2-dihydroquinoxalin-6-yl)-3-(1-methylcyclobutyl)urea] | 100 to 1000
4 | C[C@H]1Oc2cc(NC(=O)NC(C)(C)C)ccc2N(Cc2cc(C(F)(F)F)ccc2C#N)C1=O [Example 83, (R)-1-(tert-butyl)-3-(4-(2-cyano-5-(trifluoromethyl)benzyl)-2-methyl-3-oxo-3,4-dihydro-2H-benzo[b][1,4]oxazin-7-yl)urea] | > 1000
5 | C[C@H]1Oc2cc(NC(=O)NC(C)(C)[C@H]3C[C@@H](O)C3)ccc2N(Cc2ccccc2)C1=O [Example 238] | > 1000
6 | C[C@@H](c1cc(Cl)ccc1Cl)n1c(=O)cnc2cc(NC(=O)NC(C)(C)C)c(C#N)cc21 [Example 363, (S)-1-(tert-butyl)-3-(7-cyano-1-(1-(2,5-dichlorophenyl)ethyl)-2-oxo-1,2-dihydroquinoxalin-6-yl) urea] | 100 to 1000
7 | CC(C)(C#N)CNC(=O)Nc1ccc2c(c1)ncc(=O)n2Cc1cccc(OC(F)(F)F)c1 [Example 241, 1-(2-cyano-2-methylpropyl)-3-(2-oxo-1-(3-(trifluoromethoxy)benzyl)-1,2-dihydroquinoxalin-6-yl)urea] | > 1000
8 | CC(C)(C)NC(=O)Nc1ccc2c(c1)ncc(=O)n2Cc1cccc2c1OCCC2 [Example 96, 1-(tert-buty1)-3-(1-(chroman-8-ylmethyl)-2-oxo-1,2-dihydro-quinoxalin-6-yl)urea] | 100 to 1000
9 | Cc1cc2c(cc1NC(=O)NC(C)(C)C)O[C@H](C)C(=O)N2Cc1ccccc1 [Example 332, (R)-1-(4-benzyl-2,6-dimethyl-3-oxo-3,4-dihydro-2H-benzo[b][1,4]oxazin-7-yl)-3-(tert-butyl)urea] | 100 to 1000
10 | CC1Oc2nc(NC(=O)NC(C)(C)C)c(C(F)(F)F)cc2N(Cc2ccccc2)C1=O (stereo in doubt) [Example 378, (R)-1-(1-benzyl-3-methyl-2-oxo-7-(trifluoromethyl)-2,3-dihydro-1H-pyrido[2,3-b][1,4]oxazin-6-yl)-3-(tert-butyl)urea] | 100 to 1000
11 | C[C@@H](c1cccc(OC(F)(F)F)c1)n1c(=O)cnc2cc(NC(=O)NC(C)(C)C(F)(F)F)ccc21 [Example 208, (S)-1-(2-oxo-1-(1-(3-(trifluoromethoxy)phenyl)ethyl)-1,2-dihydroquinoxalin-6-yl)-3-(1,1,1-trifluoro-2-methylpropan-2-yl)urea] | 100 to 1000
12 | C[C@H]1Oc2cc(NC(=O)NC3(C(F)(F)F)CCC3)ccc2N([C@@H](C)c2ccccc2)C1=O [Example 259, 1-((R)-2-methyl-3-oxo-4-((S)-1-phenylethyl)-3,4-dihydro-2H-benzo [b][1,4]oxazin-7-yl)-3-(1-(trifluoro-methyl)cyclo-butyl)urea] | < 100
13 | CC(C)(C)NC(=O)Nc1ccc2c(c1)ncc(=O)n2Cc1cccc(C(F)(F)F)c1 [Example 90, 1-(tert-butyl)-3-(2-oxo-1-(3-(trifluoro-methyl)benzyl)-1,2-di-hydro-quinoxalin-6-yl)urea] | 100 to 1000
14 | C[C@H]1Oc2cc(NC(=O)NC(C)(C)C)ccc2N(Cc2cccc(OC(F)(F)F)n2)C1=O [Example 166, (R)-1-(tert-butyl)-3-(2-methyl-3-oxo-4-((6-(trifluoro-methoxy)pyridin-2-yl)methyl)-3,4-dihydro-2H-benzo [b][1,4]oxazin-7-yl)urea] | < 100
15 | C[C@H]1Oc2cc(NC(=O)NC(C)(C)C)c(F)c(F)c2N(Cc2cccc(C(F)F)c2)C1=O [Example 340, (R)-1-(tert-butyl)-3-(4-(3-(difluoromethyl)benzyl)-5,6-difluoro-2-methyl-3-oxo-3,4-dihydro-2H-benzo[b][1,4]oxazin-7-yl)urea] | 100 to 1000

Further lines, results first:

Row | IC50 [nM] | Compound
16 | < 100 | CC(C)(C)NC(=O)Nc1ccc2c(c1)OCC(=O)N2Cc1cccc(Cl)c1 [Example 33, 3-tert-butyl-1-{4-[(3-chlorophenyl)methyl]-3-oxo-2H-1,4-benzoxazin-7-yl}urea]
17 | 100 to 1000 | C[C@H](c1cccc(Cl)c1)N1C(=O)CCc2nc(NC(=O)NC(C)(C)C)ccc21 [Example 291, (R)-1-(tert-butyl)-3-(5-(1-(3-chlorophenyl)ethyl)-6-oxo-5,6,7,8-tetrahydro-1,5-naphthyridin-2-yl)urea]
18 | < 100 | CC(C)(C)NC(=O)Nc1ccc2c(c1)CCC(=O)N2Cc1ccccc1F [Example 19, 3-tert-butyl-1-{1-[(2-fluorophenyl)methyl]-2-oxo-3,4-dihydroquinolin-6-yl}urea]
19 | < 100 | C[C@H]1Oc2cc(NC(=O)NC(C)(C)C)ccc2N(Cc2cc(Cl)ccc2Cl)C1=O [Example 176, (R)-1-(tert-butyl)-3-(4-(2,5-dichloro-benzyl)-2-methyl-3-oxo-3,4-dihydro-2H-benzo [b][1,4]oxazin-7-yl)urea]
20 | 100 to 1000 | C[C@@H](c1ccccc1)n1c(=O)cnc2cc(NC(=O)NC(C)(C)C)c(Cl)cc21 [Example 344, (S)-1-(tert-butyl)-3-(7-chloro-2-oxo-1-(1-phenylethyl)-1,2-dihydroquinoxalin-6-yl)urea]
21 | < 100 | C[C@H]1Oc2cc(NC(=O)NC(C)(C)C)ccc2N([C@@H](C)c2cccc(Cl)c2)C1=O [Example 183, 1-(tert-butyl)-3-((R)-4-((S)-1-(3-chlorophenyl)ethyl)-2-methyl-3-oxo-3,4-dihydro-2H-benzo[b][1,4]oxazin-7-yl)urea]
22 | < 100 | C[C@@H](c1cccc(OC(F)(F)F)c1)n1c(=O)cnc2cc(NC(=O)NC(C)(C)C)ccc21 [Example 100, (S)-1-(tert-butyl)-3-(2-oxo-1-(1-(3-(trifluoromethoxy)phe-nyl)ethyl)-1,2-dihydroquinoxalin-6-yl)urea]
23 | 100 to 1000 | Cc1nc2cc(NC(=O)NC(C)(C)C)ccc2n([C@@H](C)c2cccc(OC(F)(F)F)c2)c1=O [Example 182, (S)-1-(tert-butyl)-3-(3-methyl-2-oxo-1-(1-(3-(trifluoromethoxy)phenyl)ethyl)-1,2-dihydroquinoxalin-6-yl)urea]
24 | 100 to 1000 | COc1cccc([C@H](C)n2c(=O)cnc3cc(NC(=O)NC(C)(C)C)ccc32)n1 [Example 144, (S)-1-(tert-butyl)-3-(1-(1-(6-methoxypyridin-2-yl)ethyl)-2-oxo-1,2-dihydroquinoxalin-6-yl)urea]
25 | > 1000 | C[C@@H](c1cccc2ccncc12)n1c(=O)cnc2cc(NC(=O)NC(C)(C)C)ccc21 [Example 126, (S)-1-(tert-butyl)-3-(1-(1-(isoquinolin-8-yl)ethyl)-2-oxo-1,2-dihydroquinoxalin-6-yl)urea]
26 | > 1000 | CCC(c1ccccc1)N1C(=O)CCc2cc(NC(=O)NC(C)(C)C)ccc21 (centres unmarked) [Example 28, 1-(tert-butyl)-3-(2-oxo-1-(1-phenylpropyl)-1,2,3,4-tetrahydroquinolin-6-yl)urea]
